How the values were obtained:
Experiment in all cases: IA-DTB cysteine engagement
Format in all cases: binding
Details in all cases: 22Rv1 cells, 20 μM probe, 1 h, relative to DMSO
[1] = target: T1, APOOL_C74 (Homo sapiens, UniProt Q6UXV4)
T1 construct: endogenous in cells; host or cells: 22Rv1
T1 sequence (Q6UXV4 28-268): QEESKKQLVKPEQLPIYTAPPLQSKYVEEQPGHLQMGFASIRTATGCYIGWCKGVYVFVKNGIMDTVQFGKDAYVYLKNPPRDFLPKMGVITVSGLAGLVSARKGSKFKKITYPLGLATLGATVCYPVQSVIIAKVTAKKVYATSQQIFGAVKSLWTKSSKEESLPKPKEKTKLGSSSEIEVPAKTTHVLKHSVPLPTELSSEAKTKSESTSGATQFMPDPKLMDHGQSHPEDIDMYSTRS
Method in brief: (§1)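 Read-out is TMT-based cysteine engagement, expressed as each reporter ion intensity divided by the average of the DMSO channels. Before that, probe-treated cell lysates were capped with IA-DTB, digested, enriched on streptavidin and TMT-tagged. PSMs with DMSO summed intensity <10,000 or DMSO CV >0.5 were excluded.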

[2] = target: T2, EPB42_C586 (Homo sapiens, UniProt P16452)
T2 construct: endogenous in cells; host or cells: 22Rv1
T2 sequence (P16452 1-691): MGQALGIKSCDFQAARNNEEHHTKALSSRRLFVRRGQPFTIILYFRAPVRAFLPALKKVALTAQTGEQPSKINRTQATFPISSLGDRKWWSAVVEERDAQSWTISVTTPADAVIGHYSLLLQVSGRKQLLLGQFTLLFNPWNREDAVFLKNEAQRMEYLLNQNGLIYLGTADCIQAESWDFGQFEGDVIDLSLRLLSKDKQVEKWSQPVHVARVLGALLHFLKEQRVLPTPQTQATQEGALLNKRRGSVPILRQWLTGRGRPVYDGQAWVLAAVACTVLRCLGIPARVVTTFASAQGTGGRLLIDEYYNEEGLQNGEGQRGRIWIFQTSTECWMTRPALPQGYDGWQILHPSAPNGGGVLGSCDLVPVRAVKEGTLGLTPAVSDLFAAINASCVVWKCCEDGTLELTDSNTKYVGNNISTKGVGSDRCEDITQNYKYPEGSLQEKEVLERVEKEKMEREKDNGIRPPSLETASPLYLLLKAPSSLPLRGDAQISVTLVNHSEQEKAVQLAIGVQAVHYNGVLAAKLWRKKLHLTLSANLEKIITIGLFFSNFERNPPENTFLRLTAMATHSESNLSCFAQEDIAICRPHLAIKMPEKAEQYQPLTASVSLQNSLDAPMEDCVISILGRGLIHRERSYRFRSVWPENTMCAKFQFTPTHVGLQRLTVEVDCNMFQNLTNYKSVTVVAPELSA
Method in brief: as §1

[3] = target: T3, PTGES2_C110 (Homo sapiens, UniProt Q9H7Z7)
T3 construct: endogenous in cells; host or cells: 22Rv1
T3 sequence (Q9H7Z7 whole entry): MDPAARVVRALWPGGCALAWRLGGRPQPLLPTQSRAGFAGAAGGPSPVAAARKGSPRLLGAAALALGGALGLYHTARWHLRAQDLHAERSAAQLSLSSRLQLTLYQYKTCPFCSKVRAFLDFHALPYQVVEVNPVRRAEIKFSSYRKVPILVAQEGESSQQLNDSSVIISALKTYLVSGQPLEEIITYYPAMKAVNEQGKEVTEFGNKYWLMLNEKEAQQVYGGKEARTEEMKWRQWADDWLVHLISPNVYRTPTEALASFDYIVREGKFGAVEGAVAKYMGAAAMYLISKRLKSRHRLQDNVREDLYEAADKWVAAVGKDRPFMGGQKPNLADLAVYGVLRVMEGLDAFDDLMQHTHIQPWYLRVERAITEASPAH
Method in brief: as §1

| % engagement APOOL_C74 [1] [%] | % engagement EPB42_C586 [2] [%] | % engagement PTGES2_C110 [3] [%] | SMILES |
| --- | --- | --- | --- |
| 71.25 | 43.5 | 89.25 | C=CC(=O)N1C[C@H](c2ccc(Br)cc2)[C@H]1C(=O)Nc1cccc2cccnc12 [MY-3B, (2S,3S)-1-acryloyl-3-(4-bromophenyl)-N-(quinolin-8-yl)azetidine-2-carboxamide] |
| 64.5 | 33.5 | 38.5 | C=CC(=O)N1C[C@H](c2ccc(Br)cc2)[C@@H]1C(=O)Nc1cccc2cccnc12 [MY-1B, (2R,3S)-1-acryloyl-3-(4-bromophenyl)-N-(quinolin-8-yl)azetidine-2-carboxamide] |
| 52 | 66.5 | 69.75 | C=CC(=O)N1C[C@H](c2ccc(Br)cc2)[C@H]1C(=O)Nc1cccc2cccnc12 [MY-3A, (2S,3S)-1-acryloyl-3-(4-bromophenyl)-N-(quinolin-8-yl)azetidine-2-carboxamide] |
| 52.75 | 55 | 31.25 | C=CC(=O)N1C[C@@H](c2ccc(Br)cc2)[C@H]1C(=O)Nc1cccc2cccnc12 [MY-1A, (2S,3R)-1-acryloyl-3-(4-bromophenyl)-N-(quinolin-8-yl)azetidine-2-carboxamide] |

Reference: US20250034216A1, “STEREOSELECTIVE COVALENT LIGANDS FOR ONCOGENIC AND IMMUNOLOGICAL PROTEINS” (The Scripps Research Institute, priority 2021, published 2025)
